IC50 and C481S mutation-resistance data for 15 compounds are collected here from patent US10793575B2, “Oxoisoquinoline derivatives” (CARNA BIOSCIENCES, INC., priority 2016, dated 2020).

The target of experiment [1] is dephosphorylated BTK (Homo sapiens (Human), UniProt Q06187). The experiment in a line: BTK Activity Inhibition Test (mobility shift assay). Format: biochemical. To be noted: 200 μM ATP, read-out: Inhibitory Activity on BTK. The method, then:
Dephosphorylated BTK was obtained by adding λ protein phosphatase (manufactured by New England BioLabs Inc., Code No. P0753S) and MnCl2 at 10 U/μg and 2 mM, respectively, to biotinylated BTK protein BTN-BTK (Manufactured by Carna Biosciences, Inc.) enzyme solution, reacting the mixture at 4° C. overnight, and removing of λ protein phosphatase by anti […]-tag antibody agarose gel chromatography, followed by buffer exchange using a 10DG Desalting Column.
The kinase activity was measured using QuickScout Screening Assist (trade mark) MSA (commercially available kit manufactured by Carna Biosciences, Inc.) by mobility shift assay (MSA) method. The substrate of the kinase reaction was an FITC-labeled SRCtide peptide included in the kit. An assay buffer [20 mM HEPES, 0.01% Triton X-100 (Trade mark), 2 mM dithiothreitol, pH 7.5] was used and adjusted at 4 μM substrate, 20 mM MgCl2 and 200 μm ATP to obtain a substrate mixture solution. The enzyme solution was also prepared by diluting the dephosphorylated BTK to 0.46 nM using the assay buffer. The 10 mM solution of the test compound in DMSO was further diluted with DMSO to 10 levels of the concentration (0.00003 mM, 0.0001 mM, 0.0003 mM, 0.001 mM, 0.003 mM, 0.01 mM, 0.03 mM, 0.1 mM, 0.3 mM, 1 mM), each of which was subjected to a 25-fold dilution with the assay buffer to obtain the drug solutions (4% DMSO solutions). 5 μL of the drug solution or a control solution (4% DMSO-assay buffer), 5 μL of the substrate mixture solution, and 10 μL of the enzyme solution were mixed in the wells of a polypropylene 384-well plate and allowed to react at room temperature for 2 hours, and then quenched by adding 60 μL of the termination buffer included in the kit. Subsequently, the quantities of the substrates (S) and the phosphorylated substrate (P) in the reaction solution were measured using LabChip EZ Reader II system (manufactured by Caliper Life Sciences) according to the protocol of the assay kit.
(§1) The heights of the peaks of the isolated substrate and the phosphorylated substrate were represented as S and P, respectively, and a blank which contained the assay buffer instead of the enzyme solution was also measured.
(§2) The inhibition rate (%) of the test compound was calculated according to the following equation; Inhibition rate (%)=(1−(C−A)/(B−A))×100 • wherein, A, B and C represent P/(P+S) of the blank well, P/(P+S) of the control well and P/(P+S) of the compound-containing well, respectively.
(§3) The IC50 value was calculated via a regression analysis of the inhibition rate (%) and the test compound concentration (logarithmic value).

Experiment [2] deals with OCI-Ly10 cells. As to the kind of experiment: Proliferation-Inhibitory Test Against Diffuse Large-Cell B-Cell Lymphoma OCI-Ly10 Strain. Format: cell-based. The note with it: Homo sapiens, 96 hours, alamarBlue. The method, then: OCI-Ly10 cells were cultured in IMDM medium (Iscove's Modified Dulbecco's Medium, Manufactured by Thermo Fisher Scientific Inc., hereinafter “medium”) containing 20% Fetal bovine serum and 1% penicillin-streptomycin (Nacalai Tesque, Inc.) in a 5% CO2 incubator. OCI-Ly10 cells were seeded to 96-well plate (20000 cells/well), compounds diluted with medium were added with final concentrations of 0.9 nM to 30000 nM (Final DMSO concentration, 0.3%), incubated for 96 hours and alamorBlue reagent (Thermo Fisher Scientific Inc.) was added.
(In general: Resazurin is reduced to fluorescent resorufin, in cell work by metabolically active cells.)

Experiment [3] has as its target wild type BTK [BTK(WT)] (Homo sapiens (Human), UniProt Q06187). The experiment in a line: C481S Mutant BTK Inhibitory Activity Test, wild type BTK (mobility shift assay). Format: biochemical. To be noted: 120 μM ATP. The method, then: (§4) The kinase activity was measured using QuickScout Screening Assist (trademark) MSA (commercially available kit manufactured by Carna Biosciences, Inc.) by mobility shift assay (MSA) method. The substrate of the kinase reaction was an FITC-labeled SRCtide peptide included in the kit. […] The 10 mM solution of the test compound in DMSO was further diluted with DMSO to 10 levels of the concentration (0.00003 mM, 0.0001 mM, 0.0003 mM, 0.001 mM, 0.003 mM, 0.01 mM, 0.03 mM, 0.1 mM, 0.3 mM, 1 mM), each of which was subjected to a 25-fold dilution with the assay buffer to obtain the drug solutions (4% DMSO solutions).
(§5) 5 μL of the drug solution or a control solution (4% DMSO-assay buffer), 5 μL of the substrate mixture solution, and 10 μL of the enzyme solution were mixed in the wells of a polypropylene 384-well plate and allowed to react at room temperature for 1 hour, and then quenched by adding 60 μL of the termination buffer included in the kit. Subsequently, the quantities of the substrates (S) and the phosphorylated substrate (P) in the reaction solution were measured using LabChip EZ Reader II system (manufactured by Caliper Life Sciences) according to the protocol of the assay kit.
as §1, §2, §3

The target of experiment [4] is C481S mutant BTK [BTK(C481S)] (Homo sapiens (Human), UniProt Q06187, C481S). The experiment in a line: C481S Mutant BTK Inhibitory Activity Test (mobility shift assay). Format: biochemical. To be noted: for IC50: C481S mutant BTK, 100 μM ATP; for C481S mutation-resistance: IC50[BTK(C481S)]/IC50[BTK(WT)]. The method, then:
as §4, §5, §1, §2, §3

Chain of dephosphorylated BTK (Q06187 whole entry): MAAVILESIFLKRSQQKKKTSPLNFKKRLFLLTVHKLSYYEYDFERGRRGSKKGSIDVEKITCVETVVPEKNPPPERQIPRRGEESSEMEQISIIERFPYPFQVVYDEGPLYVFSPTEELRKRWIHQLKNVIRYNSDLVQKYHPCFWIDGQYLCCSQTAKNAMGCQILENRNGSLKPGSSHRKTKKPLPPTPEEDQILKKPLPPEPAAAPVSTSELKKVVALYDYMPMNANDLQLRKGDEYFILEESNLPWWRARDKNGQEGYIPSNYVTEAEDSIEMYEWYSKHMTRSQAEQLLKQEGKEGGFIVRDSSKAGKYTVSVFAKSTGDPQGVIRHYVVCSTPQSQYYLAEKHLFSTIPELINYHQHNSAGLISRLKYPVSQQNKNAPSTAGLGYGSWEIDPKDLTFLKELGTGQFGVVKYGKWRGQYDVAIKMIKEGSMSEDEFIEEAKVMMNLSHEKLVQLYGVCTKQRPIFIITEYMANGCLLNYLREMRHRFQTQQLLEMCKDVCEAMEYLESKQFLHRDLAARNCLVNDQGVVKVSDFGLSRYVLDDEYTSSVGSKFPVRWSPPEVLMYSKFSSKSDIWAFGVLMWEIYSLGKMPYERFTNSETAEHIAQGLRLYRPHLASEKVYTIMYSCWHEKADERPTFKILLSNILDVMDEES
Chain of wild type BTK [BTK(WT)] (Q06187 whole entry): as above
Chain of C481S mutant BTK [BTK(C481S)] (Q06187 whole entry C481S): as the sequence (Q06187 whole entry) above, with C481S counted along it

As to `NCc1cc2c(-c3cccc(-n4ccc5cc(C6CC6)cc(F)c5c4=O)c3CO)nc(N)nc2[nH]1` [Example 39, 2-{3-[2-amino-6-(aminomethyl)-7H-pyrrolo[2,3-d]pyrimidin-4-yl]-2-(hydroxymethyl)phenyl}-6-cyclopropyl-8-fluoroisoquinolin-1(2H)-one], the IC50 in experiment [1] was 10 to 100 nM; in experiment [2], 1050 nM.
The matching figures for `Nc1nc(-c2cccc(-n3ccc4cc(C5CC5)cc(F)c4c3=O)c2CO)c2cc(-c3ccc(F)cc3F)[nH]c2n1` [Example 35, 2-{3-[2-amino-6-(2,4-difluorophenyl)-7H-pyrrolo[2,3-d]pyrimidin-4-yl]-2-(hydroxymethyl)phenyl}-6-cyclopropyl-8-fluoroisoquinolin-1(2H)-one]: less than 10 nM and 428 nM.
For `CS(=O)(=O)N1CC=C(c2cc3c(-c4cccc(-n5ccc6cc(C7CC7)cc(F)c6c5=O)c4CO)nc(N)nc3[nH]2)CC1` [Example 89, 2-(3-{2-amino-6-[1-(methylsulfonyl)-1,2,3,6-tetrahydropyridin-4-yl]-7H-pyrrolo[2,3-d]pyrimidin-4-yl}-2-(hydroxymethyl)phenyl)-6-cyclopropyl-8-fluoroisoquinolin-1(2H)-one], the IC50 in experiment [3] came out at 0.34 nM; in experiment [4], 0.7 nM; in experiment [2], 10 nM. In addition, the C481S mutation-resistance in experiment [4] turned out to be 2.1.
Turning to `Nc1nc(-c2cccc(-n3ccc4cc(C5CC5)cc(F)c4c3=O)c2CO)c2cc(-c3ccc(OC(F)(F)F)cc3)[nH]c2n1` [Example 38, 2-(3-{2-amino-6-[4-(trifluoromethoxy)phenyl]-7H-pyrrolo[2,3-d]pyrimidin-4-yl}-2-(hydroxymethyl)phenyl)-6-cyclopropyl-8-fluoroisoquinolin-1(2H)-one], the IC50 in experiment [1] is 10 to 100 nM; in experiment [2] it was 366 nM.
The like results for `Nc1nc(-c2cccc(-n3ccc4cc(C5CC5)cc(F)c4c3=O)c2CO)c2cc(-c3cccc(F)c3)[nH]c2n1` [Example 29, 2-{3-[2-amino-6-(3-fluorophenyl)-7H-pyrrolo[2,3-d]pyrimidin-4-yl]-2-(hydroxymethyl)phenyl}-6-cyclopropyl-8-fluoroisoquinolin-1(2H)-one] were, in that order, less than 10 nM and 332 nM.
Take `Nc1nc(-c2cccc(-n3ccc4cc(C5CC5)cc(F)c4c3=O)c2CO)c2cc(-c3ccc(C(F)(F)F)cc3)[nH]c2n1` [Example 37, 2-(3-{2-amino-6-[4-(trifluoromethyl)phenyl]-7H-pyrrolo[2,3-d]pyrimidin-4-yl}-2-(hydroxymethyl)phenyl)-6-cyclopropyl-8-fluoroisoquinolin-1(2H)-one]: the IC50 was less than 10 nM in experiment [1] and 499 nM in experiment [2].
`CN(C)C(=O)N1CC=C(c2cc3c(-c4cccc(-n5ccc6cc(C7CC7)cc(F)c6c5=O)c4CO)nc(N)nc3[nH]2)CC1` [Example 87, 4-{2-amino-4-[3-(6-cyclopropyl-8-fluoro-1-oxoisoquinolin-2(1H)-yl)-2-(hydroxymethyl)phenyl]-7H-pyrrolo[2,3-d]pyrimidin-6-yl}-N,N-dimethyl-5,6-dihydropyridine-1(2H)-carboxamide]: the IC50 in experiment [3] was found to be 0.52 nM; in experiment [4] it was 0.95 nM. Besides, in experiment [4], the C481S mutation-resistance is listed as 1.8.
Consider `Nc1nc(-c2cccc(-n3ccc4cc(C5CC5)cc(F)c4c3=O)c2CO)c2cc(-c3ccc(F)cc3)[nH]c2n1` [Example 34, 2-{3-[2-amino-6-(4-fluorophenyl)-7H-pyrrolo[2,3-d]pyrimidin-4-yl]-2-(hydroxymethyl)phenyl}-6-cyclopropyl-8-fluoroisoquinolin-1(2H)-one], for which the values for the IC50 in experiment [1] and in experiment [2] were less than 10 nM and 102 nM, respectively.
With `CN1CCN(C(=O)N2CC=C(c3cc4c(-c5cccc(-n6ccc7cc(C8CC8)cc(F)c7c6=O)c5CO)nc(N)nc4[nH]3)CC2)CC1` [Example 71, 2-(3-{2-amino-6-[1-(4-methylpiperazine-1-carbonyl)-1,2,3,6-tetrahydropyridin-4-yl]-7H-pyrrolo[2,3-d]pyrimidin-4-yl}-2-(hydroxymethyl)phenyl)-6-cyclopropyl-8-fluoroisoquinolin-1(2H)-one], in experiment [3], the IC50 was found to be 0.39 nM. Besides, in experiment [4], the IC50 was determined as 0.58 nM and the C481S mutation-resistance is recorded as 1.5.
As to `Nc1nc(-c2cccc(-n3ccc4cc(C5CC5)cc(F)c4c3=O)c2CO)c2cc(-c3cccc(C(F)(F)F)c3)[nH]c2n1` [Example 40, 2-(3-{2-amino-6-[3-(trifluoromethyl)phenyl]-7H-pyrrolo[2,3-d]pyrimidin-4-yl}-2-(hydroxymethyl)phenyl)-6-cyclopropyl-8-fluoroisoquinolin-1(2H)-one], the figures for the IC50 in experiment [1] and in experiment [2] were less than 10 nM and 1330 nM, respectively.
The like results for `Nc1nc(-c2cccc(-n3ccc4cc(C5CC5)cc(F)c4c3=O)c2CO)c2cc(-c3ccc(F)c(F)c3)[nH]c2n1` [Example 36, 2-{3-[2-amino-6-(3,4-difluorophenyl)-7H-pyrrolo[2,3-d]pyrimidin-4-yl]-2-(hydroxymethyl)phenyl}-6-cyclopropyl-8-fluoroisoquinolin-1(2H)-one] were, in that order, less than 10 nM and 450 nM.
Take `Cn1cc(-c2nc3c(-c4cccc(-n5ccc6cc(C7CC7)cc(F)c6c5=O)c4CO)nc(N)nc3[nH]2)cn1` [Example 31, 2-{3-[2-amino-8-(1-methyl-1H-pyrazol-4-yl)-9H-purin-6-yl]-2-(hydroxymethyl)phenyl}-6-cyclopropyl-8-fluoroisoquinolin-1(2H)-one]: the IC50 in experiment [1] was less than 10 nM; in experiment [2] it was 45 nM.
The like results for `Nc1nc(-c2cccc(-n3ccc4cc(C5CC5)cc(F)c4c3=O)c2CO)c2cc(-c3ccccc3F)[nH]c2n1` [Example 33, 2-{3-[2-amino-6-(2-fluorophenyl)-7H-pyrrolo[2,3-d]pyrimidin-4-yl]-2-(hydroxymethyl)phenyl}-6-cyclopropyl-8-fluoroisoquinolin-1(2H)-one] were, in that order, less than 10 nM and 197 nM.
Regarding `Nc1nc(-c2cccc(-n3ccc4cc(C5CC5)cc(F)c4c3=O)c2CO)c2cc(C3=CCNCC3)[nH]c2n1` [Example 93, 2-{3-[2-amino-6-(1,2,3,6-tetrahydropyridin-4-yl)-7H-pyrrolo[2,3-d]pyrimidin-4-yl]-2-(hydroxymethyl)phenyl}-6-cyclopropyl-8-fluoroisoquinolin-1(2H)-one], the figures for the IC50 in experiment [3] and in experiment [4] were 0.41 nM and 0.99 nM, respectively. Besides, the C481S mutation-resistance in experiment [4] is 2.4.
As for `Nc1nc(-c2cccc(-n3ccc4cc(C5CC5)cc(F)c4c3=O)c2CO)c2cc[nH]c2n1` [Example 6, 2-[3-(2-amino-7H-pyrrolo[2,3-d]pyrimidin-4-yl)-2-(hydroxymethyl)phenyl]-6-cyclopropyl-8-fluoroisoquinolin-1(2H)-one], the IC50 in experiment [1] was less than 10 nM.
